Experiment [1] concerns the target N-terminally truncated VhChiP (lacking the N-plug) (Vibrio campbellii (formerly Vibrio harveyi) ATCC BAA-1116). Put plainly: crystal structure; truncated VhChiP, ligand-free (C121, a single trimer per asymmetric unit) and cocrystallised with chitohexaose (P1, two trimers per asymmetric unit).
Experiment [2] concerns CymA. More on the design: method as in PMID 10455198. The following applies: cited from earlier work.
Experiment [3] concerns the target T1, VhChiP D1A mutant (Vibrio campbellii, UniProt L0RVU0, D26A).
T1 sequence (L0RVU0 26-375 D26A): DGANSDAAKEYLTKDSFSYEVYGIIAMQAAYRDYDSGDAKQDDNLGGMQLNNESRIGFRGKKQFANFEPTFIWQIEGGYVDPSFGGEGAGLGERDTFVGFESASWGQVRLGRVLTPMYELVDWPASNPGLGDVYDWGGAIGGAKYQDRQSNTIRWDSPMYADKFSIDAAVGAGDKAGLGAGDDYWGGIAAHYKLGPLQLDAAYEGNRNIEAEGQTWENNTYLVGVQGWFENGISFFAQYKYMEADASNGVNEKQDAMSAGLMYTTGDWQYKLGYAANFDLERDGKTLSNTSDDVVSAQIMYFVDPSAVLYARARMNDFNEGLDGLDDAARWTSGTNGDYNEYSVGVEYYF
Put plainly: Single-channel BLM recordings, chitohexaose titration of D1A mutant. The format is binding. The following applies: sugar on cis side. On the procedure: Single-channel analysis using the BLM reconstitution technique was performed as described previously ([13], [34], [35]). The lipid bilayer cuvette consisted of a 25-μm thick Teflon film sandwiched between two chambers. […] The chambers were filled with electrolyte solution and Ag/AgCl electrodes immersed on either side of the Teflon film. The electrolyte used was 1 M KCl buffered with 20 mM Hepes, pH 7.4. 1,2-diphytanoyl-sn-glycero-3-phosphatidylcholine (Avanti Polar Lipids) was used for lipid bilayer formation. To form the bilayer, the aperture was first prepainted with 1 μl of 1% (v/v) hexadecane in pentane (Sigma-Aldrich). One of the electrodes was used as the ground (cis), while the other electrode (trans) was connected to the head-stage of an Axopatch 200B amplifier (Axon Instruments). VhChiP (20–100 ng μL^−1) was added to the solution on the cis side of the lipid membrane. At applied transmembrane potentials of ±100 mV, a single channel was frequently inserted within a few minutes. […] Occlusions of ion flow caused by sugar diffusion through the inserting channel were usually recorded for 2 min. […]
Gmax is the average conductance of the fully open VhChiP channel, and Gc is the average conductance at a given concentration [c] of chitohexaose. […] The titration experiments were also analyzed using double reciprocal plots.

Experiment [4] deals with EcChiP. More on the design: method as in PMID 27226611, PMID 28972167. The following applies: single-channel analysis; cited from earlier work.
The target in experiment [5] is T2, WT VhChiP (Vibrio campbellii, UniProt L0RVU0).
T2 sequence (L0RVU0 26-375): T1 sequence (L0RVU0 26-375 D26A)
Put plainly: ITC, chitohexaose into WT VhChiP. The following applies: 25 °C. The format is binding. On the procedure: (§1) ITC experiments were carried out at least three times using the MicroCal PEAQ-ITC (Malvern Instruments Ltd) at 25 ± 1 °C with a stirring speed of 500 rpm. For titration experiments, 40 μl of chitohexaose or the N-plug was titrated from a syringe into the 300 μl-calorimeter cells containing 0.05% (v/v) LDAO, 20 mM sodium phosphate buffer, pH 7.5, and protein solution. Injections (2 μl per injection) were repeated 19 times over 150-s intervals. The background was measured by injecting the corresponding ligand into the cell containing only the buffer. The ITC data were collected and analyzed using the MicroCal PEAQ-ITC analysis software (https://www.malvernpanalytical.com/en/support/product-support/software/microcal-peaq-itc-analysis-software-v141). The ITC profile obtained by injecting the corresponding ligand into the reaction cell containing buffer without VhChiP was subtracted from the […] dataset. The resultant data were fitted by a single-site binding model with the nonlinear least square algorithm.

For experiment [6], the target named is T2, WT VhChiP. Put plainly: Single-channel BLM recordings, chitohexaose titration of WT VhChiP. The format is binding. The following applies: no N-plug peptide. On the procedure:
(§2) Single-channel analysis using the BLM reconstitution technique was performed as described previously ([13], [34], [35]). The lipid bilayer cuvette consisted of a 25-μm thick Teflon film sandwiched between two chambers. […] The chambers were filled with electrolyte solution and Ag/AgCl electrodes immersed on either side of the Teflon film. The electrolyte used was 1 M KCl buffered with 20 mM Hepes, pH 7.4. 1,2-diphytanoyl-sn-glycero-3-phosphatidylcholine (Avanti Polar Lipids) was used for lipid bilayer formation. To form the bilayer, the aperture was first prepainted with 1 μl of 1% (v/v) hexadecane in pentane (Sigma-Aldrich). One of the electrodes was used as the ground (cis), while the other electrode (trans) was connected to the head-stage of an Axopatch 200B amplifier (Axon Instruments). VhChiP (20–100 ng μL^−1) was added to the solution on the cis side of the lipid membrane. At applied transmembrane potentials of ±100 mV, a single channel was frequently inserted within a few minutes. The protein solution in the chamber was then gently diluted by multiple additions of the working electrolyte, to prevent multiple insertions. Single-channel current measurements were performed in the voltage-clamp mode, with the internal filter set at 10 kHz. Amplitude, probability, and single-channel analyses were performed using pClamp v.10.5 software (https://www.moleculardevices.com/products/axon-patch-clamp-system/acquisition-and-analysis-software/pclamp-software-suite) (all from Molecular Devices). To investigate sugar translocation, chitooligosaccharide was added to the cis side of the chamber at a final concentration of 5 μM. Occlusions of ion flow caused by sugar diffusion through the inserting channel were usually recorded for 2 min. To determine the kinetics of sugar translocation on individual subunit blockages, discrete concentrations of chitohexaose (0, 0.25, 0.5, and 1.0 μM) was tested. To study channel blocking behaviors of the N-plug, the first nine amino acids (Asp^1-Lys^9) (the so-called N-plug peptide) that plugged the channel was synthesized (GenScript). Two concentrations of the peptide (10 and 40 μM) were added to either the cis or the trans side of the chamber, containing with or without 1 μM of chitohexaose on the cis side.
(§3) The equilibrium binding constant K (M^-1) was estimated from the decrease in the ion conductance in the presence of increasing concentrations of sugar using the following equation ([36]):(1) Gmax−Gc/Gmax=Imax−Ic/Imax=K[C]/(K[C]+1)
(§4) Gmax is the average conductance of the fully open VhChiP channel, and Gc is the average conductance at a given concentration [c] of chitohexaose. Imax is the initial current through the fully open channel in the absence of sugar, and Ic is the current at a particular sugar concentration. The titration experiments were also analyzed using double reciprocal plots.

Experiment [7] concerns the target T1, VhChiP D1A mutant. Description: ITC, chitohexaose into D1A mutant. The following applies: 25 °C. The format is binding. On the procedure: as §1
On the technique in general: Isothermal titration calorimetry measures the heat released or taken up as one component is titrated into another.

For experiment [8], the system named is EcChiP. Description: Literature single-channel analysis, EcChiP. The format is binding, E. coli. The following applies: same sugar.
The target of experiment [9] is truncated VhChiP mixed with the N-plug peptide (Vibrio campbellii, UniProt L0RVU0). Description: ITC, chitohexaose into truncated VhChiP mixed with N-plug peptide. The class given is binding. To be noted: 25 °C, protein 20 μM, N-plug 5 μM. As for the experimental part: as §1
Experiment [10] has as its target N-plug peptide (Vibrio campbellii, UniProt L0RVU0). Description: ITC, chitohexaose into synthesized N-plug peptide. The class given is binding. To be noted: 25 °C. On the procedure:
as §1

Experiment [11] concerns the target T3, truncated VhChiP (Vibrio campbellii, UniProt L0RVU0). Put plainly: ITC, chitohexaose into truncated VhChiP. The format is binding. The following applies: 25 °C. As for the experimental part:
as §1

Experiment [12] deals with T3, truncated VhChiP. Description: Single-channel BLM recordings, chitohexaose titration of truncated VhChiP (without or with N-plug peptide). The class given is binding. To be noted: for K (equilibrium binding constant) / koff / kon: truncated. As for the experimental part:
as §2, with “To investigate sugar translocation, chitooligosaccharide was added to the cis side of the chamber at a final concentration of 5 μM.” left out
as §3, §4

Experiment [13] concerns maltoporin (LamB). More on the design: method as in PMID 11415317. The following applies: cited from earlier work.
In experiment [14] the test system is ScrY. More on the design: method as in PMID 9691119. To be noted: cited from earlier work.
Setting [15] is: sugar on cis side, N-plug peptide on trans side.
Setting [16] is: sugar on cis side, no N-plug peptide.
Setting [17] is: sugar on trans side, no N-plug peptide.

By stoichiometry N is commonly meant a count of units in the complex or per binding partner. A word on the Kd: it is the equilibrium constant for the complex coming apart. A lower Kd goes with higher affinity. A word on the koff: it is a measure of how fast the partners let go of each other. Broadly, the kon is a measure of how fast the partners come together.

“And” between values parts separate entries of the source, which are not always exact repeats. Identical values can stand only once. Like-named read-outs stand apart in the source and are kept apart here.

In experiment [1], “N-terminally truncated VhChiP (lacking the N-plug) (domain or fragment)” displayed a stoichiometry N of 3.
Turning to cyclodextrin, the “binding constant (K)” value in experiment [2] is on record as 31,300 M^−1.
In the case of `CC(=O)NC1C(O)OC(CO)C(OC2OC(CO)C(OC3OC(CO)C(OC4OC(CO)C(OC5OC(CO)C(OC6OC(CO)C(O)C(O)C6NC(C)=O)C(O)C5NC(C)=O)C(O)C4NC(C)=O)C(O)C3NC(C)=O)C(O)C2NC(C)=O)C1O` (stereo not drawn) [chitohexaose], in [3], the “K of D1A mutant less than WT channel” value turned out to be 2.5 fold. In addition, in experiment [4], the K value was 50,000 M^−1. For the same compound, the “n (site), stoichiometry” value in experiment [5] was determined as 3.2 ± 0.1; in experiment [7], 3.0 ± 0.1; in [9] it was 2.3 ± 0.2; in experiment [10] (N-plug peptide alone), 1.0 ± 0.02; in experiment [11] it was 2.8 ± 0.1. Also, the equilibrium dissociation constant (Kd) is 0.3 ± 0.06 µM in experiment [5] (one-site binding fit); 1.2 ± 0.2 µM in experiment [7]; 2.9 ± 0.07 µM in [9]; 2600 ± 120 µM in experiment [10] (N-plug 500 μM, no protein); 10 ± 0.3 µM in experiment [11] (one-site binding fit). In addition, the “K (equilibrium binding constant)” value in experiment [6] (WT, sugar on cis side) is 250,000 M^−1; in [6] (WT, sugar on trans side), 240,000 M^−1; in [12] (sugar on cis side, N-plug peptide on cis side) it was “incalculable”; in experiment [12] (setting [15]), 255,000 M^−1; in [12] (setting [16]) it was 11,000 M^−1; in [12] (setting [17]) it was 23,000 M^−1. The koff turned out to be 270 ± 400 s⁻¹ in [6] (WT, sugar on cis side); 210 ± 500 s⁻¹ in experiment [6] (WT, sugar on trans side, read-out: koff); 220 ± 10 s⁻¹ in experiment [12] (setting [15]); 500 ± 100 s⁻¹ in experiment [12] (setting [16]); 300 ± 100 s⁻¹ in [12] (setting [17]). Also, the “τc (average residence time)” value in experiment [6] (WT, sugar on cis side) is 3.7 ± 0.3 ms and 3.7 ± 0.4 ms. For the same compound, the on-rate constant (kon) was 68 ± 1.4 × 10^6 M^−1s^−1 in [6] (WT, sugar on cis side, 1 M KCl, 20 mM Hepes pH 7.4, +100 mV); 5e+07 ± 1.2e+06 M⁻¹ s⁻¹ in experiment [6] (WT, sugar on trans side, read-out: kon); 5.6e+07 ± 1e+07 M⁻¹ s⁻¹ in experiment [6] (pH 7.4, WT, sugar on cis side, 1 M KCl, 20 mM Hepes pH 7.4, +100 mV); 5.6e+07 ± 100000 M⁻¹ s⁻¹ in experiment [12] (setting [15]); 6.8e+06 ± 500000 M⁻¹ s⁻¹ in experiment [12] (setting [17]). Moreover, the “K of EcChiP less than that of VhChiP” value in experiment [8] is recorded as “about 10 fold”. Besides, the “reduction in the binding affinity, truncated vs WT” value in experiment [12] (from Table 2) amounted to 22.3 fold.
For the compound maltohexaose, the “binding constant (K)” value in experiment [13] is given as 13,600 M^−1.
In the case of “N-plug peptide: synthesized peptide corresponding to the first nine residues (DGANSDAAK, Asp1-Lys9) of VhChiP”, the channel blocking events entry in experiment [12] (truncated channel, no sugar, peptide at 10 and 40 μM on trans side, +100 mV, 1 M KCl, 20 mM Hepes pH 7.4) is “rare and short-lived blocking events”.
In the case of `OC[C@H]1O[C@@](CO)(O[C@H]2O[C@H](CO)[C@@H](O)[C@H](O)[C@H]2O)[C@@H](O)[C@@H]1O` [sucrose], in [14], the “binding constant (K)” value is 80 M⁻¹.

The record behind these values is publication PMC10406626, “Structural displacement model of chitooligosaccharide transport through chitoporin” (The Journal of Biological Chemistry, 2023).
